This note sets out measurements from ChEMBL document CHEMBL1132062, “A new class of potent RAR antagonists: dihydroanthracenyl, benzochromenyl and benzothiochromenyl retinoids” (Bioorg Med Chem Lett, 1999).

The structures appear in SMILES notation.

The target in experiment [1] is T1, Retinoic acid receptor gamma (Homo sapiens, UniProt P13631).
T1 sequence (P13631 whole entry): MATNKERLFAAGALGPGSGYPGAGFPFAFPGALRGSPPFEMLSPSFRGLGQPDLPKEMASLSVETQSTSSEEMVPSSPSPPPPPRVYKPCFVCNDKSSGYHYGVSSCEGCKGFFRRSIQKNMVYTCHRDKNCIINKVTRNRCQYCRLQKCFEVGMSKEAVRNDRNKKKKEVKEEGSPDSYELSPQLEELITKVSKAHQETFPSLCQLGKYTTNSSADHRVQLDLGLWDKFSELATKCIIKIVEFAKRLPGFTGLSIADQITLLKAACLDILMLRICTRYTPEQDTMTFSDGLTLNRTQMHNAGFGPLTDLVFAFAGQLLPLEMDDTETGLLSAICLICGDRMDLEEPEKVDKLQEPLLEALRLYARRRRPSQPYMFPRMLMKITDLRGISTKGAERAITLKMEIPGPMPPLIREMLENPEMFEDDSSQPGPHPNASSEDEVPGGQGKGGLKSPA
The experiment is described as follows: Binding affinity of [3H]- RA to baculovirus expressed human Retinoic acid receptor gamma.

The target in experiment [2] is T2, Retinoic acid receptor beta (Homo sapiens, UniProt P10826).
T2 sequence (P10826 whole entry): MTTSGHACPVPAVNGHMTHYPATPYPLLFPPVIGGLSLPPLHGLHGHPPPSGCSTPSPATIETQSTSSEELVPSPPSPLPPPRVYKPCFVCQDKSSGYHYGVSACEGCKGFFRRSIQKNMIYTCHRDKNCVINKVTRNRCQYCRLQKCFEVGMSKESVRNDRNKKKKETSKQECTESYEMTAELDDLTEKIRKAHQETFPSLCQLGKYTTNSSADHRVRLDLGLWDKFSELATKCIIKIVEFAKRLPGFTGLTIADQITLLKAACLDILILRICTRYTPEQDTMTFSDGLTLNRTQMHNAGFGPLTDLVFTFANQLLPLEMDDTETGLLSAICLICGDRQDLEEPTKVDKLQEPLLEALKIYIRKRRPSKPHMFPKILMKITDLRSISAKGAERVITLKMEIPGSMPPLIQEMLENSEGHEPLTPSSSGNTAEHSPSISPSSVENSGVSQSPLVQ
The experiment is described as follows: Binding affinity of [3H]- RA to baculovirus expressed human Retinoic acid receptor beta.

Experiment [3] addresses T1, Retinoic acid receptor gamma. Put plainly: Antagonistic activity against RAR gamma in transcriptional activation assay with 3.2 nM TTNPB. It is filed as functional.
The target in experiment [4] is T3, Retinoic acid receptor alpha (Homo sapiens, UniProt P10276).
T3 sequence (P10276 whole entry): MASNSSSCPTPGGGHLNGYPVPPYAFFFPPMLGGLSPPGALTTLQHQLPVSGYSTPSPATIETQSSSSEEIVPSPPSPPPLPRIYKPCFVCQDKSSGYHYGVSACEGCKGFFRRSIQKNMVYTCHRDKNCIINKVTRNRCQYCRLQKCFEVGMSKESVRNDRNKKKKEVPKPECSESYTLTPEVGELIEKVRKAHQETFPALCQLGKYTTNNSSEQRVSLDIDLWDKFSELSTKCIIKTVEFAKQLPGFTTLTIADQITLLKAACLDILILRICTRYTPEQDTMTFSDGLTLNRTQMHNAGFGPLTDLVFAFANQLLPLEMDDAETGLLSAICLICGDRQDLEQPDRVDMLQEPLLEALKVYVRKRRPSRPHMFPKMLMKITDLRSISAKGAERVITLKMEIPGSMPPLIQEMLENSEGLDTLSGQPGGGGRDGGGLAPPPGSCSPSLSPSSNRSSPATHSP
Put plainly: Binding affinity of [3H]- RA to baculovirus expressed human RAR alpha.

Experiment [5] deals with T2, Retinoic acid receptor beta. The experiment is described as follows: Antagonistic activity against RAR beta in transcriptional activation assay with 10 nM TTNPB. It is filed as functional.
Experiment [6] deals with T3, Retinoic acid receptor alpha. The experiment is described as follows: Antagonistic activity against RAR alpha in transcriptional activation assay with 32 nM TTNPB. It is filed as functional.
The species entered for experiment [7] is Mus musculus. Put plainly: Compound was tested for abrasion score in mice at a dose of 3.6 nmol/25 g of TTNPB and 28.8 nmol/25 g of the compound. In kind it is functional.
Experiment [8] is filed under the species Mus musculus. The experiment is described as follows: Compound was tested for abrasion score in mice at a dose of 3.6 nmol/25 g of TTNPB and 7.2 nmol/25 g of the compound. In kind it is functional.
The species named for experiment [9] is Mus musculus. Put plainly: Compound was tested for flaking score in mice at a dose of 3.6 nmol/25 g of TTNPB and 7.2 nmol/25 g of the compound. It is filed as functional.
Experiment [10] is filed under the species Mus musculus. The experiment is described as follows: Compound was tested for its effect on body weight gain in mice at a dose of 3.6 nmol/25 g of TTNPB and 28.8 nmol/25 g of the compound. In kind it is functional.
The species named for experiment [11] is Mus musculus. Put plainly: Compound was tested for its effect on body weight gain in mice at a dose of 3.6 nmol/25 g of TTNPB and 7.2 nmol/25 g of the compound. It is filed as functional.
Experiment [12] is filed under the species Mus musculus. Put plainly: Compound was tested for cutaneous toxicity score in mice at a dose of 3.6 nmol/25 g of TTNPB and 28.8 nmol/25 g of the compound. In kind it is functional.
For experiment [13], the species on record is Mus musculus. The experiment is described as follows: Compound was tested for cutaneous toxicity score in mice at a dose of 3.6 nmol/25 g of TTNPB and 7.2 nmol/25 g of the compound. In kind it is functional.
The species entered for experiment [14] is Mus musculus. The experiment is described as follows: Compound was tested for flaking score in mice at a dose of 3.6 nmol/25 g of TTNPB and 28.8 nmol/25 g of the compound. In kind it is functional.
Experiment [15] concerns the target T4, Retinoic acid receptor alpha (Homo sapiens) (UniProt P10276).
T4 sequence (whole entry): T3 sequence (P10276 whole entry)
The experiment is described as follows: Relative inhibition of TTNPB activity vs background activity (100% inhibition) against RAR alpha. In kind it is functional. Particulars: concentration not given here.

In experiment [16] the target is T5, Retinoic acid receptor beta (Homo sapiens) (UniProt P10826).
T5 sequence (whole entry): T2 sequence (P10826 whole entry)
The experiment is described as follows: Relative inhibition of TTNPB activity vs background activity (100% inhibition) against RAR beta. In kind it is functional. Particulars: concentration not given here.

The target of experiment [17] is T6, Retinoic acid receptor gamma (Homo sapiens) (UniProt P13631).
T6 sequence (whole entry): T1 sequence (P13631 whole entry)
Put plainly: Relative inhibition of TTNPB activity vs background activity(100% inhibition) against RAR gamma. It is filed as functional. Particulars: concentration not given here.

For experiment [18], the species on record is Mus musculus. The experiment is described as follows: Compound was tested for abrasion score in mice at a dose of 3.6 nmol/25 g. It is filed as functional.
For experiment [19], the species on record is Mus musculus. Put plainly: Compound was tested for flaking score in mice at a dose of 3.6 nmol/25 g. It is filed as functional.
The species entered for experiment [20] is Mus musculus. The experiment is described as follows: Compound was tested for its effect on body weight gain in mice at a dose of 3.6 nmol/25 g. In kind it is functional.
Experiment [21] is filed under the species Mus musculus. The experiment is described as follows: Compound was tested for cutaneous toxicity score in mice at a dose of 3.6 nmol/25 g. It is filed as functional.

For the molecule `Cc1ccc(C2=CCC(C)(C)c3cc4ccc(-c5ccc(C(=O)O)cc5)cc4cc32)cc1` [listing 1 of 2 here], the values for the Kd in [1], in [2] and in experiment [4] were 7 nM, 4 nM and 13 nM, respectively. Further, the IC50 in experiment [3] was 2 nM; in experiment [5], 22 nM; in [6], 20 nM.
For `C/C(=C\c1ccc(C(=O)O)cc1)c1ccc2c(c1)C(C)(C)CCC2(C)C.Cc1ccc(C2=CCC(C)(C)c3cc4ccc(-c5ccc(C(=O)O)cc5)cc4cc32)cc1`, the results for the Abrasion score in the experiment listed under Mus musculus [7] and in the experiment listed under Mus musculus [8] were 0 and 1, respectively. The Flaking score in the experiment listed under Mus musculus [9] and in the experiment filed under Mus musculus [14] was 1 throughout. The Gain worked out at 5% in the experiment filed under Mus musculus [10] and 2% in the experiment listed under Mus musculus [11]. Further, the results for the Cutaneous toxicology score in the experiment listed under Mus musculus [12] and in the experiment listed under Mus musculus [13] were 1.1 and 2, respectively.
On to `Cc1ccc(C2=CC(C)(C)Sc3cc4ccc(-c5ccc(C(=O)O)cc5)cc4cc32)cc1` [listing 1 of 2 here], for which the values for the Kd in experiment [1], in experiment [2] and in experiment [4] were 5 nM, 6 nM and 5.5 nM, respectively. The results for the IC50 in [3], in [5] and in experiment [6] were 0.5 nM, 2 nM and 1.5 nM, respectively.
Regarding `C/C(=C\c1ccc(C(=O)O)cc1)c1ccc2c(c1)C(C)(C)CCC2(C)C.Cc1ccc(C2=CC(C)(C)Oc3cc4ccc(-c5ccc(C(=O)O)cc5)cc4cc32)cc1`, the Abrasion score in the experiment filed under Mus musculus [7] is on record as 0; in the experiment filed under Mus musculus [8], 1. Also, the Flaking score in the experiment filed under Mus musculus [9] and in the experiment filed under Mus musculus [14] was 1 in each case. The Gain was 2% in the experiment filed under Mus musculus [10] and 3% in the experiment filed under Mus musculus [11]. The Cutaneous toxicology score in the experiment filed under Mus musculus [12] is recorded as 1; in the experiment listed under Mus musculus [13], 1.9.
As to `C/C(=C\c1ccc(C(=O)O)cc1)c1ccc2c(c1)C(C)(C)CCC2(C)C.Cc1ccc(C2=CC(C)(C)Sc3cc4ccc(-c5ccc(C(=O)O)cc5)cc4cc32)cc1`, the Abrasion score in the experiment filed under Mus musculus [7] and in the experiment listed under Mus musculus [8] was 0 in each case. Besides, the Flaking score in the experiment filed under Mus musculus [9] and in the experiment listed under Mus musculus [14] was 1 throughout. The results for the Gain in the experiment listed under Mus musculus [10] and in the experiment listed under Mus musculus [11] were 0% and 5%, respectively. Further, the figures for the Cutaneous toxicology score in the experiment listed under Mus musculus [12] and in the experiment filed under Mus musculus [13] were 0.7 and 1.4, respectively.
With `Cc1ccc(C2=CCC(C)(C)c3cc4ccc(-c5ccc(C(=O)O)cc5)cc4cc32)s1`, the Kd in [1] was 11 nM; in experiment [2] it was 6 nM; in experiment [4], 15 nM. In addition, the figures for the half-maximal inhibitory concentration (IC50) in experiment [3], in experiment [5] and in [6] were 2 nM, 15 nM and 20 nM, respectively. Moreover, the figures for the inhibition in experiment [15], in [16] and in [17] were 95%, 83% and 96%, respectively.
`Cc1ccc(C2=CC(C)(C)Sc3cc4ccc(-c5ccc(C(=O)O)cc5)cc4cc32)cc1` [listing 2 of 2 here]: the results for the inhibition in experiment [15], in [16] and in experiment [17] were 97%, 98% and 98%, respectively.
For the molecule `Cc1ccc(C2=CCC(C)(C)c3cc4ccc(-c5ccc(C(=O)O)cc5)cc4cc32)cc1` [listing 2 of 2 here], the inhibition came out at 97% in experiment [15], 97% in experiment [16] and 98% in [17].
In the case of `Cc1ccc(C2=CC(C)(C)Oc3cc4ccc(-c5ccc(C(=O)O)cc5)cc4cc32)cc1` [listing 1 of 2 here], the inhibition in experiment [15] stood at 97%; in [16] it was 98%; in [17] it was 98%.
Take `C/C(=C\c1ccc(C(=O)O)cc1)c1ccc2c(c1)C(C)(C)CCC2(C)C.Cc1ccc(C2=CC(C)(C)Oc3cc4ccc(-c5ccc(C(=O)O)cc5)cc4cc32)s1`: the Abrasion score is recorded as 1 in the experiment filed under Mus musculus [7] and 3 in the experiment listed under Mus musculus [8]. The Flaking score in the experiment listed under Mus musculus [9] and in the experiment listed under Mus musculus [14] was 2 in each case. Moreover, the Gain in the experiment listed under Mus musculus [10] came to 1%; in the experiment listed under Mus musculus [11], 6%. The Cutaneous toxicology score in the experiment filed under Mus musculus [12] is 3; in the experiment listed under Mus musculus [13], 4.6.
`C/C(=C\c1ccc(C(=O)O)cc1)c1ccc2c(c1)C(C)(C)CCC2(C)C` returned an Abrasion score in the experiment filed under Mus musculus [18] of 2. The same molecule registered a Flaking score in the experiment filed under Mus musculus [19] of 3. The molecule also displayed a Gain in the experiment listed under Mus musculus [20] of 6%. Further, the Cutaneous toxicology score in the experiment filed under Mus musculus [21] turned out to be 11.
For `Cc1ccc(C2=CC(C)(C)Oc3cc4ccc(-c5ccc(C(=O)O)cc5)cc4cc32)cc1` [listing 2 of 2 here], the results for the Kd in experiment [1], in [2] and in [4] were 14 nM, 7 nM and 14 nM, respectively. Further, the IC50 is 2 nM in [3], 7.5 nM in experiment [5] and 5.5 nM in [6].
Consider `Cc1ccc(C2=CC(C)(C)Sc3cc4ccc(-c5ccc(C(=O)O)cc5)cc4cc32)s1`, for which the Kd in [1] amounted to 18 nM; in experiment [2], 13 nM; in experiment [4], 13 nM.
As for `Cc1ccc(C2=CC(C)(C)Oc3cc4ccc(-c5ccc(C(=O)O)cc5)cc4cc32)s1`, the IC50 in experiment [3] was 4 nM; in experiment [5], 6.5 nM; in experiment [6], 6.5 nM. Also, the inhibition in experiment [15] was determined as 97%; in [16], 98%; in experiment [17] it was 97%.
